Assay results taken from patent publication US10780101B2, “Amide derivatives of squalamine for the treatment of infections” (VIRBAC, priority 2016, dated 2020).
In brackets after ≈: the same amount, converted by molar mass. Read-outs that look alike come from different tables or passages of the source.

Experiments:
P. aeruginosa (PAO1) = assay: MIC of doxycycline alone on PAO1; format: cell-based; settings: Pseudomonas aeruginosa, Gram-negative strain P. aeruginosa (PAO1)
Description: On the Gram-negative strain of P. aeruginosa (PAO1), doxycycline has an MIC of 40 μg/mL.

C. albicans = assay: Antifungal activity, cascade microdilution; format: cell-based; settings: Candida albicans, 24 h, read-out: IC50 (μg/mL) C. albicans
CHO-K1 cells = assay: WST1 cytotoxicity test on CHO-K1 cells; format: cell-based, Chinese hamster; settings: Cricetulus griseus
Procedure, shortened: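 CHO-K1 cells pre-grown 24 h, then exposed to increasing compound concentrations in duplicate for 24 h at 37° C, 5% CO2. Viability read after 20 min with 10% WST-1 in PBS at 450 nm; IC50 from nonlinear regression as concentration cutting viability 50%.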

P. aeruginosa (1051575) [1] = assay: Potentiation of doxycycline activity (combination MIC); format: cell-based, Pseudomonas aeruginosa; settings: in presence of doxycycline 2 μg/mL; 24 hours at 37° C.
[2] = test system: P. aeruginosa Human ATCC 27853; assay: MIC determination, P. aeruginosa human ATCC 27853; format: cell-based; settings: Pseudomonas aeruginosa, ATCC27853; Gram-negative; Mueller-Hinton medium, 24 h at 37° C.
Procedure, shortened: (§1)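 Strains, thawed from −80 °C glycerol stocks, are grown in Mueller-Hinton medium and seeded at OD 0.01 per well. Test compounds, prepared at 5 mg/mL in DMSO/methanol 50/50, are serially diluted by half. After 24 h at 37 °C, turbidity at 620 nm gives the MIC.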

[3] = test system: S. aureus Human ATCC 25923; assay: MIC determination, S. aureus human ATCC 25923; format: cell-based; settings: Staphylococcus aureus, ATCC25923; Gram-positive; Mueller-Hinton medium, 24 h at 37° C.
Procedure, shortened: as §1

[4] = test system: P. aeruginosa Animal (1051575); assay: MIC determination, P. aeruginosa animal (1051575); format: cell-based; settings: Pseudomonas aeruginosa; Gram-negative; Mueller-Hinton medium, 24 h at 37° C.
Procedure, shortened: as §1

[5] = test system: S. intermedius Animal (1051997); assay: MIC determination, S. intermedius animal (1051997); format: cell-based; settings: Staphylococcus intermedius; Gram-positive; Mueller-Hinton medium, 24 h at 37° C.
Procedure, shortened: as §1

P. aeruginosa (1051575) [6] = assay: Potentiation of erythromycin activity (combination MIC); format: cell-based, Pseudomonas aeruginosa; settings: erythromycin 2 μg/mL; concentration of compound required to restore antibiotic activity
Description: (§2) This method requires the use of a 96-well plate: 100 μL of a liquid culture medium are placed in each well and then seeded with the microbial suspension prepared previously. The required volume to be seeded is calculated for an OD of 0.01, which corresponds to about 5×10^6 bacteria in each well. In this plate, the first line corresponds to a negative control (200 μL of sterile culture medium in each well), the second line corresponds to a positive control (100 μL of sterile culture medium+100 μL of the bacterial suspension), and the third line contains 192 μL of culture medium; 8 μL of compound of formula (I) to be tested are placed in each well. Thereafter, a cascade dilution is performed from this line. L of a doxycycline solution (1 mg dissolved in 20 mL) are then added to each well of lines 3 to 8 to obtain a final antibiotic concentration of 2 μg/mL. 92 μL of bacterial suspension are then added to lines 3 to 8. The results are read (the determination of the MIC (2 μg/mL of doxycycline) in the presence of X g/mL of compound of formula (I)) after 24 hours of incubation at 37° C. under a humid atmosphere. After 24 hours of incubation at 37° C., 40 μL of nitro tetrazolium iodide are added to each well to reveal the presence of live bacteria by staining the medium pink.
The procedure is identical to that indicated in Example 5 above. 8 μL of an antibiotic solution under consideration (1 mg dissolved in 20 mL) are added to obtain a final antibiotic concentration of 2 μg/mL instead of 8 μL of a doxycycline solution.
(§3) The results are given in table V. They indicate the concentration of compound of formula (I) required to be able to restore the activity of the antibiotic under consideration.

S. aureus Animal (340) = assay: MIC determination, S. aureus animal (340); format: cell-based; settings: Staphylococcus aureus; Gram-positive; Mueller-Hinton medium, 24 h at 37° C.
Procedure, shortened: as §1

P. aeruginosa (1051575) [7] = assay: Potentiation of chloramphenicol activity (combination MIC); format: cell-based, Pseudomonas aeruginosa; settings: chloramphenicol 2 μg/mL; concentration of compound required to restore antibiotic activity
Description: as §2, with “L of a doxycycline solution (1 mg dissolved in 20 mL) are then added to each well of lines 3 to 8 to obtain a final antibiotic concentration of 2 μg/mL.” left out
The procedure is identical to that indicated in Example 5 above. […]
as §3

E. coli Animal (1956) = assay: MIC determination, E. coli animal (1956); format: cell-based; settings: Escherichia coli; Gram-negative; Mueller-Hinton medium, 24 h at 37° C.
Procedure, shortened: as §1

E. coli Human ATCC 28922 = assay: MIC determination, E. coli human ATCC 28922; format: cell-based; settings: Escherichia coli, ATCC28922; Gram-negative; Mueller-Hinton medium, 24 h at 37° C.
Procedure, shortened: as §1

[8] = test system: E. faecalis Human ATCC 29212; assay: MIC determination, E. faecalis human ATCC 29212; format: cell-based; settings: Enterococcus faecalis, ATCC29212; Gram-positive; Mueller-Hinton medium, 24 h at 37° C.
Procedure, shortened: as §1

[9] = CHO-K1, 24 h, read-out: IC50 (μg/mL) CHO
[10] = CHO-K1, read-out: IC50 (μg/mL) CHO

## C[C@H]1c2cccc(O)c2C(=O)C2=C(O)[C@]3(O)C(=O)C(C(N)=O)=C(O)[C@@H](N(C)C)[C@@H]3[C@@H](O)[C@@H]21 [doxycycline]
P. aeruginosa (PAO1)
  MIC: 40 µg/mL

## CCN(CC)C(=O)CC[C@@H](C)[C@H]1CCC2C3C(CC[C@@]21C)[C@@]1(C)CC[C@H](NCCCN(CCCN)CCCN)CC1C[C@H]3O (stereo partly drawn) [(44), 3β-(tris(3-aminopropyl)amine)-N,N-diethylchenodeoxycholamide]
C. albicans
  IC50: 0.5 µg/mL (≈ 0.809 µM)
CHO-K1 cells; [9]
  IC50: 75 µg/mL (≈ 121 µM)
CHO-K1 cells; [10]
  IC50: 75 µg/mL (≈ 121 µM)
P. aeruginosa (1051575) [1]
  MIC - P. aeruginosa (1051575): content of compound of formula (I) to restore the doxycycline activity (at 2 μg/mL): 2 µg/mL
[2]
  MIC: 60 µg/mL (≈ 97.1 µM)
[3]
  MIC: 2 µg/mL (≈ 3.24 µM)
[4]
  MIC: 60 µg/mL (≈ 97.1 µM)
[5]
  MIC: 2 µg/mL (≈ 3.24 µM)
P. aeruginosa (1051575) [6]
  MIC P. aeruginosa (1051575) compound + erythromycin: 8 µg/mL
S. aureus Animal (340)
  MIC: 4 µg/mL (≈ 6.47 µM)
P. aeruginosa (1051575) [7]
  MIC P. aeruginosa (1051575) compound + chloramphenicol: 4 µg/mL
E. coli Animal (1956)
  MIC: 30 µg/mL (≈ 48.5 µM)
E. coli Human ATCC 28922
  MIC: 15 µg/mL (≈ 24.3 µM)

## CCN(CC)C(=O)CC[C@@H](C)[C@H]1CCC2C3C(CC[C@@]21C)[C@@]1(C)CC[C@H](NCCCNCCCCNCCCN)CC1C[C@H]3O (stereo partly drawn) [Compound (34), 3β-spermino-N,N-diethylchenodeoxycholamide]
C. albicans
  IC50: 0.5 µg/mL (≈ 0.791 µM)
CHO-K1 cells; [9]
  IC50: 50 µg/mL (≈ 79.1 µM)
CHO-K1 cells; [10]
  IC50: 50 µg/mL (≈ 79.1 µM)
P. aeruginosa (1051575) [1]
  MIC - P. aeruginosa (1051575): content of compound of formula (I) to restore the doxycycline activity (at 2 μg/mL): 2 µg/mL
[2]
  MIC: 16 µg/mL (≈ 25.3 µM)
[3]
  MIC: 4 µg/mL (≈ 6.33 µM)
[4]
  MIC: 16 µg/mL (≈ 25.3 µM)
[5]
  MIC: 2 µg/mL (≈ 3.16 µM)
S. aureus Animal (340)
  MIC: 4 µg/mL (≈ 6.33 µM)
E. coli Animal (1956)
  MIC: 8 µg/mL (≈ 12.7 µM)
E. coli Human ATCC 28922
  MIC: 8 µg/mL (≈ 12.7 µM)
[8]
  MIC: 2 µg/mL (≈ 3.16 µM)

## CC(C)NC(=O)CC[C@@H](C)[C@H]1CCC2C3C(CC[C@@]21C)[C@@]1(C)CC[C@H](NCCCN(CCCN)CCCN)CC1C[C@H]3O (stereo partly drawn) [(46), 3β-(tris(3-aminopropyl)amine)-N-isopropylchenodeoxycholamide]
C. albicans
  IC50: 1 µg/mL (≈ 1.66 µM)
CHO-K1 cells; [9]
  IC50: 50 µg/mL (≈ 82.8 µM)
CHO-K1 cells; [10]
  IC50: 50 µg/mL (≈ 82.8 µM)
P. aeruginosa (1051575) [1]
  MIC - P. aeruginosa (1051575): content of compound of formula (I) to restore the doxycycline activity (at 2 μg/mL): 2 µg/mL
[2]
  MIC: 60 µg/mL (≈ 99.3 µM)
[3]
  MIC: 8 µg/mL (≈ 13.2 µM)
[4]
  MIC: 120 µg/mL (≈ 199 µM)
[5]
  MIC: 2 µg/mL (≈ 3.31 µM)
S. aureus Animal (340)
  MIC: 2 µg/mL (≈ 3.31 µM)
E. coli Animal (1956)
  MIC: 30 µg/mL (≈ 49.7 µM)
E. coli Human ATCC 28922
  MIC: > 120 µg/mL
[8]
  MIC: 30 µg/mL (≈ 49.7 µM)

## CC(C)NC(=O)CC[C@@H](C)[C@H]1CCC2C3CCC4C[C@@H](NCCCN5CCN(CCCN)CC5)CC[C@]4(C)C3CC[C@@]21C (stereo partly drawn) [(19), 3β-(1,4-bis(3-aminopropyl)piperazine)-N-isopropyllithocholamide]
C. albicans
  IC50: 4 µg/mL (≈ 6.67 µM)
CHO-K1 cells; [9]
  IC50: 12 µg/mL (≈ 20 µM)
CHO-K1 cells; [10]
  IC50: 12 µg/mL (≈ 20 µM)
P. aeruginosa (1051575) [1]
  MIC - P. aeruginosa (1051575): content of compound of formula (I) to restore the doxycycline activity (at 2 μg/mL): 8 µg/mL
[2]
  MIC: 120 µg/mL (≈ 200 µM)
[3]
  MIC: 8 µg/mL (≈ 13.3 µM)
[4]
  MIC: 30 µg/mL (≈ 50 µM)
[5]
  MIC: 4 µg/mL (≈ 6.67 µM)
S. aureus Animal (340)
  MIC: 4 µg/mL (≈ 6.67 µM)
E. coli Animal (1956)
  MIC: 30 µg/mL (≈ 50 µM)
E. coli Human ATCC 28922
  MIC: 30 µg/mL (≈ 50 µM)
[8]
  MIC: 15 µg/mL (≈ 25 µM)
